Assay: Kinetic study between CB—OH and CB-Ring by 1H NMR
Format: physicochemical
Conditions: for half-life of CB-Ring (hydrolysis to CB—OH): buffer
Method: Kinetic study between CB—OH and CB-Ring. The equilibrium conversion between the CB—OH and CB-Ring was monitored by ^1H NMR at various time points. To monitor the formation of CB-Ring, CB—OH powder was initially dissolved in TFA-d at a concentration of 0.2 M. The conversion from CB-Ring to CB—OH was studied by dissolving CB-Ring in either pH 7.3 or pH 10 buffer at a concentration of 0.2 M. These two buffers were made from 200 mM Na2CO3 in D2O and were titrated with DCl. Conversion was calculated based on the ratio of the characteristic peak for CB-Ring (1H, CH2═C(CH3)COOCH2CH(O—)CH2—) and a common peak of both structures (6H, —CH2N(CH3)2CH2—). In FIG. 5, the final conversion within 160 min was about 93% for all three conditions investigated. Because the integration error for ^1H NMR can be as large as 10%, a value of 93% essentially represented an almost full conversion.
Kinetic study between CB—OH and CB-Ring in acetic acid/pH=7.3 buffer. ^1H NMR was used to monitor the equilibrium conversion between the CB—OH and CB-Ring. CB—OH monomer was initially dissolved in [D]acetic acid at a concentration of 0.2 M. At various time points, the spectra were collected, and composition for the formed CB-Ring was calculated based on the ratio of the characteristic peaks for CB-Ring and CB—OH (FIG. 16). The equilibrated product (a mixture of CB-Ring and CB—OH) in [D]acetic acid was precipitated in ethyl ether, vacuum dried, and placed into pH=7.3 buffer made from 200 mM Na2CO3 in D2O titrated with DCl. CB-Ring was hydrolyzed to CB—OH at this condition and the composition for the CB-Ring at various time points were measured (FIG. 16).

conversion of CB—OH to CB-ring (in words) (TFA, 1 h) | time to full conversion into the CB-Ring structure (TFA-d) | half-life at 0.2 M (TFA-d solution, acidic environment, TFA-d / TFA, read-out: half-life of CB—OH (conversion to CB-Ring)) | final conversion to CB-Ring within 160 min (TFA-d, 0.2 M) | conversion of CB—OH to CB-Ring ([D]HAc (acetic acid), 0.2 M, 20 h) | Structure (SMILES) | half-life of CB-Ring (hydrolysis to CB—OH) (pH 7) | half-life of CB-Ring (hydrolysis to CB—OH) (pH 10) | final conversion to CB—OH within 160 min (pH 7.3 buffer (200 mM Na2CO3 in D2O titrated with DCl)) | time to nearly full conversion (hydrolysis) of CB-Ring back to CB—OH (pH 7.3 buffer, product equilibrated 40 h in [D]HAc) | time to complete conversion to the zwitterionic form (pH 10) | final conversion to CB—OH within 160 min (pH 10 buffer (200 mM Na2CO3 in D2O titrated with DCl))
almost complete conversion | ≤ 2 h | ~14 min | about 93% | 50% | C=C(C)C(=O)OCC(O)C[N+](C)(C)CC(=O)[O-] (centres unmarked) [CB—OH, 2-((2-Hydroxy-3-(methacryloyloxy)propyl)dimethylammonio)acetate] | – | – | – | – | – | –
– | – | – | – | – | C=C(C)C(=O)OCC1C[N+](C)(C)CC(=O)O1 (centres unmarked) [CB-Ring, 2-(Methacryloyloxymethyl)-4,4-dimethyl-6-oxomorpholin-4-ium] | about 4 min | < 1 min | about 93% | less than 10 min | less than 6 min | about 93%

Source: patent publication US20120269870A1, “SWITCHABLE POLYMERS AND SURFACES WITH REVERSIBLY SWITCHABLE PROPERTIES” (University of Washington through its Center for …, priority 2011, published 2012)
